Key:
Type in all cases: in vivo
[1] = tested on: serum calcium, serum phosphate, parathyroid hormone, calcitonin; test: Serum calcium, phosphate, parathyroid hormone and calcitonin upon administration; conditions: about 550 mg; data not shown
[2] = Intact Ca-Fructoborate in serum of orally treated fasted mice by LC-MS; conditions: oral gavage 600 mcg/mouse; for Intact Ca-fructoborate in serum: fasted mice
Procedure: Using LC-MS, Ca-Fructoborate was detected and measured from serum samples at concentrations as low as 0.2 ppm and higher. This method was used to analyze the presence and amount of Ca-Fructoborate in serum collected from mice treated orally (gavage) with Ca-Fructoborate in liquid at dose 600 mcg/mouse for 30 and 60 minutes.
Detection of intact Ca-Fructoborate in sera collected from fasted mice treated orally with the compound for 30 or 60 minutes. Collected sera were diluted in running buffer and filtered through 0.45 PVDF filter. This solution was analyzed by LCMS for Ca-Fructoborate as the fructoborate anion.

calcidiol = test: Serum calcidiol after single oral dose in human volunteers; conditions: single oral dosage of 552 mg, five subjects, 30-120 minutes after administration
Procedure: (§1) In a typical example, five subjects were administered a single dosage of 552 mg calcium fructoborate upon informed consent, and blood was drawn immediately prior to administration and after 30, 60, 90, and 120 minutes. Calcitriol was measured using a standard radioimmuno assay from a commercial lab starting from 4 ml whole blood (numerous alternative methods are also deemed suitable, including those described in U.S. Pat. Nos. 4,585,741, 5,202,266, and 6,455,714). From each sample and for each time point, concentrations of calcidiol and calcitriol in serum were measured and the data are shown in FIGS. 1A to 1D. FIG. 1A depicts the effect of oral administration of calcium fructoborate on blood calcitriol 30 minutes after oral administration, FIG. 1B depicts the effect of oral administration of calcium fructoborate on blood calcitriol 60 minutes after oral administration, and FIG. 1C depicts the effect of oral administration of calcium fructoborate on blood calcitriol 90 minutes after oral administration. FIG. 1D depicts the effect of oral administration of calcium fructoborate on blood calcitriol 90-120 minutes after oral administration.

blood calcitriol = test: Blood/serum calcitriol after single oral dose in human volunteers (radioimmuno assay)
Procedure: as §1
FIGS. 2A and 2B depict a graphic illustration of the results from this study where the biphasic mode of modulation of calcitriol is clearly seen between times 0-90 minutes (decrease) and 90-120 minutes (increase). In most cases, it is expected that the so increased calcitriol level will drop back to starting levels within 6 hours or less, and more typically within 4 hours, or less (data not shown). FIG. 3 depicts another graphic representation in which the exclusive modulation of calcitriol versus calcidiol is shown.
While not wishing to be bound by any theory or hypothesis, the inventors contemplate that the compounds according to the inventive subject matter increase serum concentration of calcitriol in a bi-modal manner. During the first 60 minutes, a moderate increase is observed in the case of subjects with low initial level of calcitriol (<30 pg/ml), but not in subjects with initial level >30 pg/ml. […]

calcium fructoborate
change of serum calcium concentration [1]: 5-15% | change of serum concentration of calcitonin [1]: 10-30% | change of serum concentration of parathyroid hormone [1]: 10-30% | change of serum phosphate concentration [1]: 5-15% | Intact Ca-fructoborate in serum ([2]; 30 minutes): 449 µg/mL | Intact Ca-fructoborate in serum ([2]; 60 minutes): 556 µg/mL | bioavailability of the compound ([2]; mice (20 g by average)): 556 mcg/ml of serum | delivery from intestine to bloodstream ([2]; mice, 30 and 60 minutes): in intact form and in time-dependent manner | calcidiol concentration (calcidiol): remained unaffected | modulation of calcitriol between times 0-90 minutes (blood calcitriol; single oral 552 mg, 0-90 minutes): decrease | modulation of calcitriol between times 90-120 minutes (blood calcitriol; single oral 552 mg, 90-120 minutes): increase | calcitriol serum concentration (blood calcitriol; single oral dosage of 552 mg, five subjects, 30-120 minutes after administration): significantly and acutely affected

Source: US9271994B2, “Compositions and methods related to calcitriol” (VDF Futureceuticals, Inc., priority 2009, dated 2016)
